Results reported in patent EP0542355A1, “Amorphous (Quinolin-2-ylmethoxy)indoles as leukotriene antagonists” (MERCK FROSST CANADA INC., priority 1991, dated 1993).
Values joined by “and” are separate entries in the source; they are usually repeats but may differ in a detail not shown here. Identical values can stand only once. Counter-ions that a name gives are not always drawn. Like-named read-outs stand apart in the source and are kept apart here.

Columns and labels:
Aqueous solubility = format: physicochemical
Experimental: Solubility was measured by stirring […] in water (10 mL) of amorphous L-708 at room temperature. At 48 hrs. 1 mL of the suspension was drawn and centrifuged. The supernatant was diluted and content of amorphous L-708 was measured by both U.V. spectrophotometry and by HPLC. This gave a concentration of 55 mg/mL.

Bioavailability = format: in vivo
[1] = Stability to chemical decomposition; format: physicochemical; conditions: in the solid form and in aqueous solution
Experimental: (§1) No change in water solubility has been observed even when stored for three months at 30°C and 60°C at ambient humidity and at 30°C/79% relative humidity.

[2] = Stability of saturated aqueous solutions against precipitation of the crystalline form; format: physicochemical; conditions: do not readily precipitate the crystalline form even when seeded with the crystalline allotrope
[3] = Stability of the solid on storage, followed by water solubility; format: physicochemical; conditions: solid stored three months at 30°C and 60°C at ambient humidity and at 30°C/79% relative humidity
Experimental: as §1

SMILES	solubility (Aqueous solubility; water, crystalline sodium salt, read-out: aqueous solubility)	oral bioavailability (Bioavailability; oral)	stability to chemical decomposition [1]	solubility (Aqueous solubility; de-ionized water, in de-ionized water at 25°C, read-out: solubility)	solubility at 48 h (Aqueous solubility; water, 100 mg/mL stirred in water (10 mL) at room temperature, 48 hrs, U.V. spectrophotometry and HPLC, read-out: Solubility (concentration in supernatant))	solubility (Aqueous solubility; water, not tested higher, read-out: Solubility in water)	bioavailability (Bioavailability; compared with L-708 Na⁺ salt)	stability of saturated aqueous solutions [2]	change in water solubility on storage [3]
CC(C)(C)Sc1c(CC(C)(C)C(=O)O)n(Cc2ccc(Cl)cc2)c2ccc(OCc3ccc4ccccc4n3)cc12 [L-708 Na⁺ salt, Crystalline 3-[N-(p-chlorobenzyl)-3-(t-butylthio)-5-(quinolin-2-ylmethoxy)indol-2-yl]-2.2-dimethylpropanoic acid, sodium salt, reference compound]	0.005 to 0.03 mg/mL	low oral bioavailability							
CC(C)(C)Sc1c(CC(C)(C)C(=O)O)n(Cc2ccc(Cl)cc2)c2ccc(OCc3ccc4ccccc4n3)cc12 [amorphous L-708, Amorphous 3-[N-(p-chlorobenzyl)-3-(t-butylthio)-5-(quinolin-2-ylmethoxy)indol-2-yl]-2,2-dimethylpropanoic acid, sodium salt]			highly stable to chemical decomposition	55 mg/mL	55 mg/mL	≥ 3000 µg/mL and ≥ 5000 µM	much more bioavailable than L-708 Na⁺ salt	highly stable	No change
